This is an account of results in ChEMBL document CHEMBL1201862, “PubChem BioAssay data set” (2004).

What all share (assay): growth of human tumour cells (NCI), 48 h
Assay [1] deals with SW-620.
The subject of assay [2] is UO-31.
The subject of assay [3] is HL-60.
The subject of assay [4] is SK-MEL-2.
Assay [5] concerns SNB-19.
Assay [6] relates to HCT-116.
The test system of assay [7] is MOLT-4.
The test system of assay [8] is NCI-H226.
For assay [9], the system named is NCI-H522.
Assay [10] concerns KM-20L2.
Assay [11] deals with SK-MEL-28.
Assay [12] has as its system CAKI-1.
Assay [13] concerns SNB-75.
Assay [14] has as its system NCI-H460.
Assay [15] relates to HOP-62.
In assay [16] the test system is HCC 2998.
For assay [17], the system named is RPMI-8226.
The subject of assay [18] is T47D.
For assay [19], the system named is SR.
For assay [20], the system named is NCI/ADR-RES.

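These data come from cells grown in 96-well plates and exposed to compound for 48 hours at five concentrations. GI50 = concentration required for 50% inhibition of growth.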 Activity calls are given as the source filed them. Cut-off read from the data, not from the text of the source: active = GI50 up to about 1.1 µM and inactive = higher. Bounds are passed on as bounds.

Take `Cc1cccc(NC(=O)CSc2nnc(Cc3ccccc3)o2)c1`: the GI50 in assay [1], in assay [2], in [3], in assay [4], in [5] and in assay [6] was > 100 µM (inactive) each time. The GI50 in [7], in [8], in assay [9], in assay [10], in [11] and in [12] was > 100 µM (inactive) each time. Besides, the GI50 was 63.8 µM (inactive) in [13], > 100 µM (inactive) in [14], > 100 µM (inactive) in assay [15] and > 100 µM (inactive) in [16].

With `O=C(CC1(O)C(=O)Nc2ccccc21)c1ccccc1Cl` (configuration not stated), the GI50 was > 100 µM (inactive) in assay [1]; 64.9 µM (inactive) in assay [2]; > 100 µM (inactive) in [3]; > 100 µM (inactive) in assay [4]; > 100 µM (inactive) in [5]; > 100 µM (inactive) in [6]. The GI50 in [7] was > 100 µM (inactive); in assay [8], > 100 µM (inactive); in assay [17], > 100 µM (inactive); in assay [9], 76.6 µM (inactive); in assay [10], > 100 µM (inactive); in assay [11], > 100 µM (inactive). Besides, the GI50 in assay [12], in [13] and in [14] was > 100 µM (inactive) throughout.

Take `O=C(CSc1nnc(Cc2ccccc2)o1)Nc1ccc(Cl)cc1Cl`: the GI50 in [1], in [2], in assay [3], in assay [4], in [5] and in assay [6] was > 100 µM (inactive) each time. For the same molecule, the GI50 in assay [7], in [8], in [17], in [9], in assay [10] and in assay [11] was > 100 µM (inactive) throughout. The GI50 in [12], in [13], in [14], in assay [15] and in assay [16] was > 100 µM (inactive) each time.

For `COC(=O)C(Cc1ccccc1)NC(=O)Cn1ccnc1[N+](=O)[O-]` (configuration not stated), the GI50 in assay [1], in assay [2], in assay [3], in assay [4], in assay [5] and in [7] was > 100 µM (inactive) throughout. Moreover, the GI50 was 34 µM (inactive) in [8]; > 100 µM (inactive) in [17]; > 100 µM (inactive) in assay [9]; > 100 µM (inactive) in assay [10]; > 100 µM (inactive) in [11]; > 100 µM (inactive) in assay [12]. In addition, the figures for the GI50 in [13], in assay [14] and in assay [15] were 94.8 µM (inactive), > 100 µM (inactive) and > 100 µM (inactive), respectively.

Take `CCNC(=O)O/N=C1\CCC2[C@@H]3CC=C4C[C@@H](OC5CCCCO5)CC[C@]4(C)C3CC[C@]12C` (some centres not stated): the GI50 is 2.45 µM (inactive) in [1]; 1.44 µM (inactive) in assay [2]; 2.2 µM (inactive) in [4]; 0.723 µM (active) in assay [5]; 4.8 µM (inactive) in assay [6]; 1.61 µM (inactive) in assay [7]. Further, the GI50 in assay [17] is 1.58 µM (inactive); in [9], 1.51 µM (inactive); in assay [10], 2.64 µM (inactive); in assay [11], 3.19 µM (inactive); in [12], 2.5 µM (inactive); in assay [13], 1.91 µM (inactive). Further, the values for the GI50 in assay [14], in [15] and in assay [16] were 1.93 µM (inactive), 22.3 µM (inactive) and 2.89 µM (inactive), respectively.

In the case of `COc1ccc(C(c2ccccc2C(=O)O)c2ccc(OC)c3ccccc23)c2ccccc12`, the GI50 was 14.8 µM (inactive) in assay [1]; 4.9 µM (inactive) in [2]; 7.33 µM (inactive) in assay [3]; 11.2 µM (inactive) in [5]; 5.62 µM (inactive) in [7]; 20 µM (inactive) in [8]. Also, the GI50 was 3.61 µM (inactive) in assay [17]; 12.6 µM (inactive) in assay [9]; 9.25 µM (inactive) in assay [10]; 28.8 µM (inactive) in assay [12]; 15.5 µM (inactive) in assay [15]; 6.49 µM (inactive) in assay [16].

Consider `COc1cccc(CCNC(=O)Cc2ccccc2CCO)c1`, for which the GI50 in [18], in assay [19], in assay [1], in assay [2], in [3] and in assay [4] was > 100 µM (inactive) each time. Also, the GI50 is > 100 µM (inactive) in [5]; > 100 µM (inactive) in [6]; > 100 µM (inactive) in [7]; > 100 µM (inactive) in assay [8]; > 10 µM (inactive) in [17]; > 100 µM (inactive) in assay [9]. The GI50 in [11], in assay [12], in [13], in assay [14], in assay [15] and in [16] was > 100 µM (inactive) throughout. Further, in [20], the GI50 was > 100 µM (inactive).

Take `Cc1nc2c(o1)C(=O)c1ccccc1/C2=N/C1CCCCC1N` (configuration not stated): the GI50 was 0.345 µM (active) in assay [18]; 0.22 µM (active) in assay [19]; 0.418 µM (active) in [1]; 1.64 µM (inactive) in assay [2]; 0.2 µM (active) in [3]; 0.867 µM (active) in [4]. Besides, the GI50 in assay [5] was 0.787 µM (active); in [6], 0.259 µM (active); in assay [7], 0.273 µM (active); in assay [8], 1.97 µM (inactive); in [17] it was 0.565 µM (active); in [9], 1.06 µM (active). Further, the GI50 in assay [11] was 0.166 µM (active); in assay [12], 1.71 µM (inactive); in assay [13], 0.206 µM (active); in [14], 1.61 µM (inactive); in assay [15], 0.982 µM (active); in [16], 1.65 µM (inactive). In addition, the GI50 in assay [20] is 0.288 µM (active).

As to `O=C1NC(=S)N(c2ccccc2)C1=O`, the GI50 in assay [18], in assay [19], in assay [1], in assay [2], in assay [3] and in assay [4] was > 100 µM (inactive) throughout. For the same molecule, the GI50 in assay [5] is > 100 µM (inactive); in [6], > 100 µM (inactive); in [7] it was > 100 µM (inactive); in assay [8] it was > 100 µM (inactive); in assay [17], > 100 µM (inactive); in assay [9] it was 3.79 µM (inactive). Besides, the GI50 in assay [11], in [12], in [13], in assay [14], in assay [15] and in [16] was > 100 µM (inactive) each time. The GI50 in assay [20] was > 100 µM (inactive).

For `N#Cc1c(NC(=S)Nc2ccccc2)sc2c1CCCC2`, the GI50 in [18], in [19], in [1], in assay [2], in assay [3] and in assay [4] was > 100 µM (inactive) in each case. Also, the GI50 in [5], in assay [6], in assay [7], in [8], in assay [17] and in [9] was > 100 µM (inactive) each time. Also, the GI50 in assay [11], in assay [12], in assay [13], in [14], in assay [15] and in assay [16] was > 100 µM (inactive) each time. In addition, the GI50 in assay [20] is > 100 µM (inactive).

On to `CCN(CC)c1cccc2c1C1(O)CCC3(CC21)OCCCCO3` (configuration not stated), for which the GI50 in assay [1] was 69.3 µM (inactive); in [2], > 100 µM (inactive); in assay [3] it was > 100 µM (inactive); in assay [4], > 100 µM (inactive); in [5], 18 µM (inactive); in assay [6] it was 49.3 µM (inactive). Further, the GI50 is > 100 µM (inactive) in assay [7]; 63.4 µM (inactive) in [8]; 77.6 µM (inactive) in assay [17]; > 100 µM (inactive) in assay [9]; 68.4 µM (inactive) in assay [10]; > 100 µM (inactive) in assay [11]. The GI50 is > 100 µM (inactive) in assay [12]; 36.5 µM (inactive) in assay [13]; 53.2 µM (inactive) in assay [14]; > 100 µM (inactive) in assay [15]; > 100 µM (inactive) in assay [16].

Take `CC(C)N1CCN(c2ccc(OCC3COC(Cn4cncn4)(c4ccc(Cl)cc4Cl)O3)cc2)CC1` (configuration not stated) [TERCONAZOLE]: the GI50 in assay [18] is 18 µM (inactive); in assay [19], 3.33 µM (inactive); in [1] it was 15.3 µM (inactive); in [2], > 21.9 µM (inactive); in assay [3] it was 15.4 µM (inactive); in assay [4], 14.7 µM (inactive). Further, the GI50 in assay [5] was > 42.1 µM (inactive); in [6] it was 11.2 µM (inactive); in [7] it was 10.9 µM (inactive); in [8] it was 15 µM (inactive); in assay [17], 10.5 µM (inactive); in assay [9], 15.2 µM (inactive). Further, the GI50 is 4.63 µM (inactive) in assay [11]; 17.3 µM (inactive) in assay [12]; 12.8 µM (inactive) in assay [13]; 14.6 µM (inactive) in [14]; 13.8 µM (inactive) in assay [15]; 9.18 µM (inactive) in [16]. The GI50 in [20] is 16.7 µM (inactive).
